Measured values as given in US6852689B2, “Methods for administration of antibiotics” (priority 1998, dated 2005).
Values joined by “and” are separate entries in the source; they are usually repeats but may differ in a detail not shown here. Identical values can stand only once. Like-named read-outs stand apart in the source and are kept apart here.

Tests used:
[1] = tested on: human volunteers and patients; conditions: in vivo, cited from earlier work
[2] = Study A: steady state plasma concentrations of daptomycin on day 18 by HPLC; conditions: dogs
Protocol: (§1) Skeletal muscle toxicity was measured in dogs by increases in CPK levels to above the normal range and by microscopic changes in skeletal tissue.
Steady state plasma concentrations of daptomycin on day 18 of dosing were determined by HPLC.

[3] = Study B: steady state plasma concentrations of daptomycin on day 18 by HPLC
Protocol: In order to study the effects of threshold plasma concentration on skeletal muscle toxicity, dogs (4 male dogs/group) were administered dose regimens of saline q8h, daptomycin 5 mg/kg q24h (approximate NOELq24h) and daptomycin 5 mg/kg q8h intravenously for 20 days.
As in Example 1, steady state plasma concentrations of daptomycin on day 18 of dosing were determined by HPLC.

rats = conditions: rat, in vivo, iv, 75 mg/kg/day; cited from earlier work
gram-positive bacteria = conditions: cited from earlier work
dogs [4] = conditions: dog, in vivo, iv, 40 mg/kg/day; cited from earlier work
dogs [5] = experiment: Study A: skeletal muscle toxicity (serum CPK, microscopic myopathy) after repeated intravenous dosing; conditions: for Diaphragm myofiber degeneration, sites affected/sites examined / Heart myofiber degeneration, sites affected/sites examined / Skeletal muscle myofiber degeneration, sites affected/sites examined / Skeletal muscle myofiber regeneration, sites affected/sites examined: iv 20 days
Protocol: as §1
Treated animals were sacrificed at approximately one dosing interval after the last dose and muscle tissue was microscopically examined for indications of myopathy.

[6] = human, in vivo
[7] = cited from earlier work
human patients = experiment: Clinical study (Example 4): serum CPK and skeletal muscle effects in hospitalized adult subjects with gram-positive infections; format: in vivo
Protocol: In order to study whether an increased dosing interval would prevent transient skeletal muscle toxicity in patients, daptomycin was administered intravenously to hospitalized adult subjects with serious gram-positive bacteremia or with a variety of infections due to gram-positive bacteria that was resistant to vancomycin or who were otherwise refractory to, or contraindicated for, currently available therapy. The subjects were treated for a period of 7-21 days. Serum CPK levels were determined prior to first antibiotic treatment and every other day for the first seven days of treatment, and daily thereafter.

dogs [8] = experiment: Study B: skeletal muscle toxicity (serum CPK, microscopic myopathy) after repeated intravenous dosing; format: in vivo, dog
Protocol: Serum CPK levels were determined as disclosed in Example 1. […] In contrast, CPK levels at 5 mg/kg q8h were elevated compared to 5 mg/kg q24h or saline controls.

Q: With `CCCCCCCCCC(=O)N[C@@H](Cc1c[nH]c2ccccc12)C(=O)N[C@H](CC(N)=O)C(=O)N[C@@H](CC(=O)O)C(=O)N[C@@H]1C(=O)NCC(=O)N[C@@H](CCCN)C(=O)N[C@@H](CC(=O)O)C(=O)N[C@H](C)C(=O)N[C@@H](CC(=O)O)C(=O)NCC(=O)N[C@H](CO)C(=O)N[C@@H]([C@H](C)CC(=O)O)C(=O)N[C@@H](CC(=O)c2ccccc2N)C(=O)O[C@@H]1C` [daptomycin] as the compound, how does the Adverse effects ([1]; 3 mg/kg) read?
A: occasional adverse effects

Q: And the “Patients with transient muscular weakness and pain” value ([1]; 4 mg/kg)?
A: two of five

Q: And the Cmax ratio ([2]; 25 mg/kg q8h compared to 25 mg/kg q24h)?
A: 1.23 fold higher

Q: And the AUC ratio ([2]; 25 mg/kg q8h compared to 75 mg/kg q24h)?
A: 0.37 fold higher

Q: And the “Time with plasma concentration below 27 μg/mL before next dose” value ([2]; 75 mg/kg q24h)?
A: approximately 12 hours

Q: And the Cmax ratio ([2]; 75 mg/kg q24h compared to 25 mg/kg q8h)?
A: approximately 2.8 fold higher

Q: What about the half-life ([3]; dog, in vivo) of the same compound?
A: 2.5 h

Q: What about the “Time below 10 μg/mL plasma concentration” value ([3]; dogs, 5 mg/kg q8h) of the same compound?
A: 6 h

Q: And the AUC ratio ([3]; dogs, 5 mg/kg q8h compared to 5 mg/kg q24h)?
A: 2.6 fold higher

Q: What about the “Time below 10 μg/mL plasma concentration” value ([3]; dogs, 5 mg/kg q24h) of the same compound?
A: 18 h

Q: And the Skeletal muscle finding (rats)?
A: mild myopathy

Q: And the “MIC of certain vancomycin-resistant strains relative to most vancomycin-susceptible strains” value (gram-positive bacteria)?
A: two- to four-fold

Q: What about the “MIC relative to that of vancomycin” value (gram-positive bacteria; susceptible strains, typical) of the same compound?
A: 4 fold lower

Q: What about the Skeletal muscle finding (dogs [4]) of the same compound?
A: mild myopathy

Q: What about the “Increases in serum CPK correlating with minimal skeletal myofiber degeneration” value (dogs [5]; dog, in vivo) of the same compound?
A: three- to 25

Q: And the “Microscopic effect on heart muscle” value (dogs [5]; dog, in vivo)?
A: No microscopic degenerative effect

Q: And the “Time of CPK peak during treatment” value (dogs [5]; dog, in vivo)?
A: approximately 1 week

Q: What about the “Increase in CPK levels” value (dogs [5]; dog, in vivo, 25 mg/kg) of the same compound?
A: greater than 10 fold

Q: And the “Incidence of Microscopic Myopathy (sites with minimal degenerative changes/sites examined)” value (dogs [5]; dog, in vivo, iv, 75 mg/kg)?
A: 8/28

Q: And the “Peak CPK” value (dogs [5]; dog, in vivo, iv, 75 mg/kg)?
A: 990 U/L

Q: What about the “Increase in toxicity as measured by incidence of microscopic myopathy” value (dogs [5]; dogs, 25 mg/kg three times a day compared to once daily) of the same compound?
A: 5 fold

Q: What about the “Diaphragm myofiber degeneration, sites affected/sites examined” value (dogs [5]; dogs, 25 mg/kg q8h) of the same compound?
A: 1/4

Q: What about the “Heart myofiber degeneration, sites affected/sites examined” value (dogs [5]; dogs, 25 mg/kg q8h) of the same compound?
A: 0/4

Q: What about the “Skeletal muscle myofiber degeneration, sites affected/sites examined” value (dogs [5]; dogs, 25 mg/kg q8h) of the same compound?
A: 14/24

Q: What about the “Skeletal muscle myofiber regeneration, sites affected/sites examined” value (dogs [5]; dogs, 25 mg/kg q8h) of the same compound?
A: 9/24

Q: What about the “Diaphragm myofiber degeneration, sites affected/sites examined” value (dogs [5]; dogs, 25 mg/kg q24h) of the same compound?
A: 0/4

Q: And the “Heart myofiber degeneration, sites affected/sites examined” value (dogs [5]; dogs, 25 mg/kg q24h)?
A: 0/4

Q: And the “Skeletal muscle myofiber degeneration, sites affected/sites examined” value (dogs [5]; dogs, 25 mg/kg q24h)?
A: 3/24

Q: What about the “Skeletal muscle myofiber regeneration, sites affected/sites examined” value (dogs [5]; dogs, 25 mg/kg q24h) of the same compound?
A: 2/24

Q: And the “Diaphragm myofiber degeneration, sites affected/sites examined” value (dogs [5]; dogs, 75 mg/kg q24h)?
A: 0/4

Q: And the “Heart myofiber degeneration, sites affected/sites examined” value (dogs [5]; dogs, 75 mg/kg q24h)?
A: 0/4

Q: And the “Skeletal muscle myofiber degeneration, sites affected/sites examined” value (dogs [5]; dogs, 75 mg/kg q24h)?
A: 8/24

Q: What about the “Skeletal muscle myofiber regeneration, sites affected/sites examined” value (dogs [5]; dogs, 75 mg/kg q24h) of the same compound?
A: 1/24

Q: What about the “Predicted Cmax” value ([6]; 4 mg/kg) of the same compound?
A: 69.2 µg/mL

Q: And the “Predicted Cmax” value ([6]; 6 mg/kg)?
A: 86.8 µg/mL

Q: What about the Plasma protein binding [7] of the same compound?
A: high

Q: What about the “Muscular pain or weakness” value (human patients; human, in vivo) of the same compound?
A: None of the patients experienced any muscular pain or weakness

Q: What about the “Total Number of Patients with Presumed Drug-Related Adverse Skeletal Muscle Effects/Total Evaluated” value (human patients; iv 7-21 days, 4 mg/kg q24h) of the same compound?
A: 0/8

Q: What about the “Total Number of Patients with Presumed Drug-Related Adverse Skeletal Muscle Effects/Total Evaluated” value (human patients; iv 7-21 days, 6 mg/kg q24h, 6 mg/kg) of the same compound?
A: zero of nine and 0/9

Q: And the “Total Number of Patients with Presumed Drug-Related Adverse Skeletal Muscle Effects/Total Evaluated” value (human patients; iv, 6 mg/kg followed by 3 mg/kg q12h)?
A: 0/3

Q: And the “Effect on heart muscle” value (dogs [8]; dog, in vivo)?
A: No degenerative effect

Q: And the “Increases in CPK levels correlating with very minimal myofiber degeneration” value (dogs [8]; dog, in vivo)?
A: zero- to four-fold

Q: What about the “Heart myofiber degeneration, sites affected/sites examined” value (dogs [8]; dog, in vivo, iv, 5 mg/kg) of the same compound?
A: 0/4

Q: What about the NOEL (dogs [8]; dogs, q24h dosing interval) of the same compound?
A: approximately 5 mg/kg
